Measured values reported in PubChem BioAssay AID1963977 (Molecular Pharmacology Branch, DTP, NCI, 2024).

System: 624824-186-R-J3-PDC multicell spheroids, viability
Test: Anticancer human tumor 624824-186-R-J3-PDC patient-derived colon adenocarcinoma cell line growth inhibition [PI3K]
Conditions: for IC50: curve of first compound; for viability, T/C: stronger effect = lower value
Outline: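 We assembled tumor spheroids that included a stromal compartment of HUVEC and MSCs, then exposed them to targeted agents alone and together with PI3K pathway inhibitors. Concentration series descended by half-log from clinically achievable Cmax levels. Viability served as the endpoint.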
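Also: spheroids exposed to agents for seven days before luminescence read.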
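For viability, T/C in this document: luminescent signal used as a stand-in for spheroid viability; percent viability relative to DMSO vehicle control wells taken as 100%.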

Compound CC1(C)CCC(Nc2ncc(C(F)(F)F)c(-c3c[nH]c4c(P(C)(C)=O)c(C#N)ccc34)n2)CN1 (configuration not stated) + CC(Nc1ccc2c(c1)OCCn1cc(N3C(=O)OCC3C(F)F)nc1-2)C(N)=O has an IC50 (second compound 0.00316 µM) of 5.18 µM, an IC50 (second compound 0.01 µM) of 5.16 µM and an IC50 (second compound 0.0316 µM) of 5.28 µM. It also gave an IC50 (second compound 0.1 µM) of 4.79 µM, an IC50 (second compound 0.316 µM) of 4.54 µM and an IC50 (second compound 1 µM) of 3.18 µM. It also gave a viability, T/C (second compound 0.00316 µM, first compound 0.0316 µM) of 106%, a viability, T/C (second compound 0.00316 µM, first compound 0.1 µM) of 90.5% and a viability, T/C (second compound 0.00316 µM, first compound 0.316 µM) of 89.4%. It also gave a viability, T/C (second compound 0.00316 µM, first compound 1 µM) of 89.6%, a viability, T/C (second compound 0.00316 µM, first compound 3.16 µM) of 85.5% and a viability, T/C (second compound 0.00316 µM, first compound 10 µM) of 2.71%. The viability, T/C (second compound 0.01 µM, first compound 0.0316 µM) was 104%, the viability, T/C (second compound 0.01 µM, first compound 0.1 µM) was 95.6% and the viability, T/C (second compound 0.01 µM, first compound 0.316 µM) was 92.7%. For the same compound, the viability, T/C (second compound 0.01 µM, first compound 1 µM) was 96.3%, the viability, T/C (second compound 0.01 µM, first compound 3.16 µM) was 84.2% and the viability, T/C (second compound 0.01 µM, first compound 10 µM) was 3.61%. The viability, T/C (second compound 0.0316 µM, first compound 0.0316 µM) was 99.4%, the viability, T/C (second compound 0.0316 µM, first compound 0.1 µM) was 88.7% and the viability, T/C (second compound 0.0316 µM, first compound 0.316 µM) was 89.4%. It also gave a viability, T/C (second compound 0.0316 µM, first compound 1 µM) of 93.5%, a viability, T/C (second compound 0.0316 µM, first compound 3.16 µM) of 87.8% and a viability, T/C (second compound 0.0316 µM, first compound 10 µM) of 3.03%. For the same compound, the viability, T/C (second compound 0.1 µM, first compound 0.0316 µM) was 90%, the viability, T/C (second compound 0.1 µM, first compound 0.1 µM) was 85.5% and the viability, T/C (second compound 0.1 µM, first compound 0.316 µM) was 89.8%. The viability, T/C (second compound 0.1 µM, first compound 1 µM) was 85.7%, the viability, T/C (second compound 0.1 µM, first compound 3.16 µM) was 76.5% and the viability, T/C (second compound 0.1 µM, first compound 10 µM) was 2.82%. For the same compound, the viability, T/C (second compound 0.316 µM, first compound 0.0316 µM) was 81.8%, the viability, T/C (second compound 0.316 µM, first compound 0.1 µM) was 64.8% and the viability, T/C (second compound 0.316 µM, first compound 0.316 µM) was 68.2%. It also gave a viability, T/C (second compound 0.316 µM, first compound 1 µM) of 76.5%, a viability, T/C (second compound 0.316 µM, first compound 3.16 µM) of 71.8% and a viability, T/C (second compound 0.316 µM, first compound 10 µM) of 2.32%. The viability, T/C (second compound 1 µM, first compound 0.0316 µM) was 54.9%, the viability, T/C (second compound 1 µM, first compound 0.1 µM) was 56.1% and the viability, T/C (second compound 1 µM, first compound 0.316 µM) was 57%. It also gave a viability, T/C (second compound 1 µM, first compound 1 µM) of 53.4%, a viability, T/C (second compound 1 µM, first compound 3.16 µM) of 50.5% and a viability, T/C (second compound 1 µM, first compound 10 µM) of 2.4%.
